Results on 20 molecules are retold here after patent US20260274866A1, “PYRIDO[4,3-D]PYRIMIDINE DERIVATIVES AS MUTANT KRAS G12C INHIBITORS FOR THE TREATMENT OF CANCER” (Frontier Medicines Corporation, priority 2023, published 2026).

pIC50: −log10 of the molar value. Where only a bound is given, the exact number is not on record here.

What is called pIC50 is the IC50 on a negative log10 scale, so that one unit is a factor of ten. The low end stands for a high IC50, the high end for a low IC50.

T1 sequence (P01116 1-169 isoform P01116-2 G12C/C51S/C80L/C118S): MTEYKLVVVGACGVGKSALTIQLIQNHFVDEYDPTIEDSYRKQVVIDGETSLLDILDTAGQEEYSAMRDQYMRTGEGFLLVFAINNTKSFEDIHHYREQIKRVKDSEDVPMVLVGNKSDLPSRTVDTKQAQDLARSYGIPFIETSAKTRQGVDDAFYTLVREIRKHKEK

The test has as its target T1, KRAS G12C (GMPPNP-loaded) and cRAF (Ras-binding domain) interaction (Homo sapiens, UniProt P01116, C118S/C51S/C80L/G12C).
T1 construct: truncated version comprising amino acids 1-169
The test can be described thus: AlphaScreen inhibition of KRAS G12C and cRAF binding. The test is classed as biochemical. Particulars: KRAS G12C preloaded with GTP analogue GMPPNP, 2 hours preincubation. As for the experimental part:
The AlphaScreen technology was used to determine IC50s for compound inhibition of KRAS G12C (present as the Cys-light (C51S, C80L and C118S), truncated version comprising amino acids 1-169) and cRAF interaction. Compounds were diluted in 100% DMSO and each compound concentration was spotted at 200 nl/well onto low volume, white 384 well plates. The KRAS G12C contained a biotin-AviTag and the cRaf, as Ras-binding domain (amino acids 50-131, RBD), was GST-tagged. KRAS G12C was preloaded with the GTP analogue Guanosine 5′-[β,γ-imido]triphosphate (GMPPNP). The KRAS G12C was diluted in 25 mM Hepes, pH 7.4, 150 mM NaCl, 5 mM MgCl2, 0.01% TritonX-100 and 10 μM GMPPNP and added at 10 ul/well to compound-spotted plates resulting in a DMSO concentration of 2%. Plates were incubated for 2 hours. A mixture of RBD and the AlphaScreen streptavidin donor and glutathione acceptor beads diluted in 25 mM Hepes, pH 7.4, 150 mM NaCl, 5 mM MgCl2, 0.01% TritonX-100 and 2% DMSO was then added at 10 ul/well and incubated for 60-90 minutes before the samples were read for emission at 570 nm after excitation of the donor beads at 680 nm. All incubations were performed at room temperature. The final top compound concentration was 50 μM with 1:3 titrations for 10-point dose response curves. Final assay conditions were 0.5 nM KRAS G12C, 0.75 nM RBD and 5 ug/ml each of AlphaScreen donor and acceptor beads. IC50s were determined using nonlinear regression fit of [inhibitor] vs. response (4 parameters).
A counter assay was also set up to rule out inhibitors of the AlphaScreen technology itself. Compound plates were incubated for 2 hours as above with buffer only. The AlphaScreen beads were added as above except biotin-AviTag-GST was substituted for the RBD. Samples were read and analyzed as above.
In general terms: Alpha assays give light when donor and acceptor beads are brought close together.
`CC(/C=C/C(=O)N1CCN(c2nc(OC[C@@]34CCCN3C[C@H](F)C4)nc3c(F)c(-c4cccc5cccc(Cl)c45)ncc23)C[C@@H]1CC#N)N1CC[C@H](F)C1` (some centres unmarked) [Compound 28] had a negative-log IC50 (pIC50) of 7.00 to 8.00. With `CC(/C=C/C(=O)N1CCN(c2nc(OC[C@@]34CCCN3C[C@H](F)C4)nc3c(F)c(-c4cccc5cccc(Cl)c45)ncc23)C[C@@H]1CC#N)N1CC[C@@H](F)C1` (stereo partly drawn) [Compound 29, 2-((2S)-4-(7-(8-chloronaphthalen-1-yl)-8-fluoro-2-(((2R,7aS)-2-fluorotetrahydro-1H-pyrrolizin-7a(5H)-yl)methoxy)pyrido[4,3-d]pyrimidin-4-yl)-1-((E)-4-((R)-3-fluoropyrrolidin-1-yl)pent-2-enoyl)piperazin-2-yl)acetonitrile] the figure was over 8.00. For `C[C@H](/C=C/C(=O)N1CCN(c2nc(OC[C@@]34CCCN3C[C@H](F)C4)nc3c(F)c(-c4cccc5cccc(Cl)c45)ncc23)C[C@@H]1CC#N)N1[C@@H]2CC[C@H]1COC2` [Compound 30, 2-((S)-1-((R,E)-4-((1R,5S)-3-oxa-8-azabicyclo[3.2.1]octan-8-yl)pent-2-enoyl)-4-(7-(8-chloronaphthalen-1-yl)-8-fluoro-2-(((2R,7aS)-2-fluorotetrahydro-1H-pyrrolizin-7a(5H)-yl)methoxy)pyrido[4,3-d]pyrimidin-4-yl)piperazin-2-yl)acetonitrile] the value was 7.00 to 8.00; for `C[C@@H](/C=C/C(=O)N1CCN(c2nc(OC[C@@]34CCCN3C[C@H](F)C4)nc3c(F)c(-c4cccc5cccc(Cl)c45)ncc23)C[C@@H]1CC#N)N1[C@@H]2CC[C@H]1COC2` [Compound 31, 2-((S)-1-((S,E)-4-((1R,5S)-3-oxa-8-azabicyclo[3.2.1]octan-8-yl)pent-2-enoyl)-4-(7-(8-chloronaphthalen-1-yl)-8-fluoro-2-(((2R,7aS)-2-fluorotetrahydro-1H-pyrrolizin-7a(5H)-yl)methoxy)pyrido[4,3-d]pyrimidin-4-yl)piperazin-2-yl)acetonitrile], 7.00 to 8.00.

Molecule `C#Cc1c(F)ccc2cccc(-c3ncc4c(N(C)[C@@H]5CCN(C(=O)/C=C/C(C)N(C)C)C5)nc(OC[C@@]56CCCN5C[C@H](F)C6)nc4c3F)c12` (stereo partly drawn) [Compound 32, (E)-4-(dimethylamino)-1-((R)-3-((7-(8-ethynyl-7-fluoronaphthalen-1-yl)-8-fluoro-2-(((2R,7aS)-2-fluorotetrahydro-1H-pyrrolizin-7a(5H)-yl)methoxy)pyrido[4,3-d]pyrimidin-4-yl)(methyl)amino)pyrrolidin-1-yl)pent-2-en-1-one] gave a negative logarithm of the IC50 (pIC50) of over 8.00. For `CC(/C=C/C(=O)N1CCN(c2nc(OC[C@@]34CCCN3C[C@H](F)C4)nc3c(F)c(-c4cccc5cccc(Cl)c45)ncc23)C[C@@H]1CC#N)N1CC2CCC(C1)O2` (some centres unmarked) [Compound 33] the value was 7.00 to 8.00; for `CC(/C=C/C(=O)N1CCN(c2nc(OC[C@@]34CCCN3C[C@H](F)C4)nc3c(F)c(-c4cccc5cccc(Cl)c45)ncc23)C[C@@H]1CC#N)N1CC2CC(C1)O2` (some centres unmarked) [Compound 34], 7.00 to 8.00; for `CC(/C=C/C(=O)N1CC[C@@H](N(C)c2nc(OC[C@@]34CCCN3C[C@H](F)C4)nc3c(F)c(-c4cccc(Cl)c4C4CC4)ncc23)C1)N(C)C` (some centres unmarked) [Compound 35], 6.30 to 7.00. For `C[C@H](/C=C/C(=O)N1CCN(c2nc(OC[C@@]34CCCN3C[C@H](F)C4)nc3c(F)c(-c4cccc5cccc(Cl)c45)ncc23)C[C@@H]1CC#N)N1CC2CC(C1)O2` [Compound 36] the value was 7.00 to 8.00. Regarding `C[C@@H](/C=C/C(=O)N1CCN(c2nc(OC[C@@]34CCCN3C[C@H](F)C4)nc3c(F)c(-c4cccc5cccc(Cl)c45)ncc23)C[C@@H]1CC#N)N1CC2CC(C1)O2` [Compound 37], the pIC50 is 6.30 to 7.00. For `C[C@H](/C=C/C(=O)N1CCN(c2nc(OC[C@@]34CCCN3C[C@H](F)C4)nc3c(F)c(-c4cccc5cccc(Cl)c45)ncc23)C[C@@H]1CC#N)N1CC[C@H](F)C1` [Compound 38] the value was at most 6.30; for `CO[C@@H]1CCN([C@@H](C)/C=C/C(=O)N2CCN(c3nc(OC[C@@]45CCCN4C[C@H](F)C5)nc4c(F)c(-c5cccc6ccc(F)c(Cl)c56)ncc34)C[C@@H]2CC#N)C1` [Compound 39], 6.30 to 7.00.

Regarding `CO[C@@H]1CCN([C@H](C)/C=C/C(=O)N2CCN(c3nc(OC[C@@]45CCCN4C[C@H](F)C5)nc4c(F)c(-c5cccc6ccc(F)c(Cl)c56)ncc34)C[C@@H]2CC#N)C1` [Compound 40], the pIC50 was 6.30 to 7.00. With `C[C@@H](/C=C/C(=O)N1CCN(c2nc(OC[C@@]34CCCN3C[C@H](F)C4)nc3c(F)c(-c4cccc5cccc(Cl)c45)ncc23)C[C@@H]1CC#N)N1C[C@@H]2C[C@H]1CO2` [Compound 41] the figure was 7.00 to 8.00; with `C[C@H](/C=C/C(=O)N1CCN(c2nc(OC[C@@]34CCCN3C[C@H](F)C4)nc3c(F)c(-c4cccc5cccc(Cl)c45)ncc23)C[C@@H]1CC#N)N1CC2CCC(C1)O2` [Compound 42], 6.30 to 7.00; with `C[C@@H](/C=C/C(=O)N1CCN(c2nc(OC[C@@]34CCCN3C[C@H](F)C4)nc3c(F)c(-c4cccc5cccc(Cl)c45)ncc23)C[C@@H]1CC#N)N1CC2CCC(C1)O2` [Compound 43], 6.30 to 7.00.

For the molecule `C[C@H](/C=C/C(=O)N1CCN(c2nc(OC[C@@]34CCCN3C[C@H](F)C4)nc3c(F)c(-c4cccc(Cl)c4C4CC4)ncc23)C[C@@H]1CC#N)N(C)C` [Compound 44, 2-((S)-4-(7-(3-chloro-2-cyclopropylphenyl)-8-fluoro-2-(((2R,7aS)-2-fluorotetrahydro-1H-pyrrolizin-7a(5H)-yl)methoxy)pyrido[4,3-d]pyrimidin-4-yl)-1-((R,E)-4-(dimethylamino)pent-2-enoyl)piperazin-2-yl)acetonitrile], the pIC50 was 7.00 to 8.00. With `C[C@@H](/C=C/C(=O)N1CCN(c2nc(OC[C@@]34CCCN3C[C@H](F)C4)nc3c(F)c(-c4cccc(Cl)c4C4CC4)ncc23)C[C@@H]1CC#N)N(C)C` [Compound 45, 2-((S)-4-(7-(3-chloro-2-cyclopropylphenyl)-8-fluoro-2-(((2R,7aS)-2-fluorotetrahydro-1H-pyrrolizin-7a(5H)-yl)methoxy)pyrido[4,3-d]pyrimidin-4-yl)-1-((S,E)-4-(dimethylamino)pent-2-enoyl)piperazin-2-yl)acetonitrile] the figure was 6.30 to 7.00. For `C[C@H](/C=C/C(=O)N1CCN(c2nc(OC[C@@]34CCCN3C[C@H](F)C4)nc3c(F)c(-c4cccc(Cl)c4C(F)(F)F)ncc23)C[C@@H]1CC#N)N(C)C` [Compound 46, 2-((S)-4-(7-(3-chloro-2-(trifluoromethyl)phenyl)-8-fluoro-2-(((2R,7aS)-2-fluorotetrahydro-1H-pyrrolizin-7a(5H)-yl)methoxy)pyrido[4,3-d]pyrimidin-4-yl)-1-((R,E)-4-(dimethylamino)pent-2-enoyl)piperazin-2-yl)acetonitrile], the pIC50 was 7.00 to 8.00. `C[C@@H](/C=C/C(=O)N1CCN(c2nc(OC[C@@]34CCCN3C[C@H](F)C4)nc3c(F)c(-c4cccc(Cl)c4C(F)(F)F)ncc23)C[C@@H]1CC#N)N(C)C` [Compound 47, 2-((S)-4-(7-(3-chloro-2-(trifluoromethyl)phenyl)-8-fluoro-2-(((2R,7aS)-2-fluorotetrahydro-1H-pyrrolizin-7a(5H)-yl)methoxy)pyrido[4,3-d]pyrimidin-4-yl)-1-((S,E)-4-(dimethylamino)pent-2-enoyl)piperazin-2-yl)acetonitrile] showed a pIC50 of at most 6.30.
